Among the data in patent US20250018046A1, “COMPOUNDS FOR TARGETING DEGRADATION OF IRAK4 PROTEINS” (BIOGEN MA INC, priority 2021, published 2025) are DC50 values, retold here.

The target in this experiment is T1, IRAK4 (Homo sapiens, UniProt Q9NWZ3).
T1 construct: knocking-in a HiBiT fusion tag into the C-terminal of the IRAK4 gene in 293T cells; host or cells: 293T cells, knock-in of HiBiT at the endogenous IRAK4 locus
T1 sequence (Q9NWZ3 1-460): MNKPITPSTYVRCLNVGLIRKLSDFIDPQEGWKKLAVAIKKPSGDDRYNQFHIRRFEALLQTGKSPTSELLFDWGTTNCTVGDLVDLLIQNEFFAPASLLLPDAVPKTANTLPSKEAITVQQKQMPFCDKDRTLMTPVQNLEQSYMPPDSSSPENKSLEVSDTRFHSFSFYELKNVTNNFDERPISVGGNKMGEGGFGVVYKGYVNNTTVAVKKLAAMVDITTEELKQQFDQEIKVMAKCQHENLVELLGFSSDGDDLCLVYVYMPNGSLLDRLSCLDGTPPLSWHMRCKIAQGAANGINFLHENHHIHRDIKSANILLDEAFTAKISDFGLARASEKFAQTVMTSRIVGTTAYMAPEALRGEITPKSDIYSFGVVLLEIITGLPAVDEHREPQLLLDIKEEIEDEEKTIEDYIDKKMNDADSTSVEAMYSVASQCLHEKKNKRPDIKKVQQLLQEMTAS
The experiment in a line: IRAK4 degradation assay using the HiBiT Method. The note with it: 293T cells expressing HiBiT-tagged IRAK4; 6-hour incubation; Nano-Glo HiBiT Lytic Assay luminescence. Format: cell-based. The procedure:
Selected compounds were tested in an IRAK4 degradation assay using the HiBiT Method.
Phenol red-free Dulbecco's modified Eagle medium (DMEM) and fetal bovine serum (FBS) were purchased from Gibco (Grand Island, NY, USA). The Nano-Glo© HiBiT Lytic Assay System was purchased from Promega (Madison, WI, USA). Cell culture flasks and 384-well microplates were acquired from VWR (Radnor, PA, USA). The 293T cell line was engineered by knocking-in a HiBiT fusion tag into the C-terminal of the IRAK4 gene in 293T cells (Synthego, Redwood City, CA, USA).
IRAK4 degradation was measured via the quantification of luminescent signals using the Nano-Glo© HiBiT Lytic Assay kit. Test compounds were added to 384-well plates in duplicate using an 11-point half-log dilution series, with the highest dose set at 10 mM. 293T cells expressing HiBiT-tagged IRAK4 were then added into 384-well plates at a cell density of 10,000 cells per well. The plates were kept at 37° C. with 5% CO2 for 6 hours. Cells that were treated only with DMSO served as the negative control; wells that contained only assay media served as the background control. After the 6-hour incubation, Nano-Glo® HiBiT Lytic Assay reagents were added to the cells. Luminescence was acquired using an EnVision® Multilabel Reader (PerkinElmer, Santa Clara, CA, USA).

The compound `CC(C)Oc1cn2cc(C3CCN(CC(=O)N4CCC(c5ccc(NC6CCC(=O)NC6=O)cc5)CC4)CC3)nc2cc1NC(=O)c1cccc(C(F)(F)F)n1` (single isomer, unassigned) [Example 14, N-[2-[1-[2-[4-[4-[[2,6-dioxo-3-piperidyl]amino]phenyl]-1-piperidyl]-2-oxo-ethyl]-4-piperidyl]-6-isopropoxy-imidazo[1,2-a]pyridin-7-yl]-6-(trifluoromethyl)pyridine-2-carboxamide] came in with a DC50 of 10 to 100 nM.

Consider `CC(C)Oc1cn2cc(C3CCN(CC(=O)N4CCC(c5ccc(NC6CCC(=O)NC6=O)cc5)CC4)CC3)nc2cc1NC(=O)c1cccc(C(F)(F)F)n1` (single isomer, unassigned) [Example 15, N-[2-[1-[2-[4-[4-[[2,6-dioxo-3-piperidyl]amino]phenyl]-1-piperidyl]-2-oxo-ethyl]-4-piperidyl]-6-isopropoxy-imidazo[1,2-a]pyridin-7-yl]-6-(trifluoromethyl)pyridine-2-carboxamide], for which the DC50 is 10 to 100 nM.

For `CC(C)Oc1cc2nc(C3CCN(C(=O)CN4CCC(c5ccc(OC6CCC(=O)NC6=O)cc5)CC4)CC3)cn2cc1NC(=O)c1cccc(C(F)(F)F)n1` (centres unmarked) [Example 1, N-[2-[1-[2-[4-[4-[(2,6-dioxo-3-piperidyl)oxy]phenyl]-1-piperidyl]acetyl]-4-piperidyl]-7-isopropoxy-imidazo[1,2-a]pyridin-6-yl]-6-(trifluoromethyl) pyridine-2-carboxamide], the DC50 is 100 to 500 nM.

Regarding `CC(C)Oc1cc2nc(C3CCN(C(=O)CN4CCC(c5cccc(NC6CCC(=O)NC6=O)c5F)CC4)CC3)cn2cc1NC(=O)c1cccc(C(F)(F)F)n1` (centres unmarked) [Example 2, N-[2-[1-[2-[4-[3-[(2,6-dioxo-3-piperidyl)amino]-2-fluoro-phenyl]-1-piperidyl]acetyl]-4-piperidyl]-7-isopropoxy-imidazo[1,2-a]pyridin-6-yl]-6-(trifluoromethyl)pyridine-2-carboxamide], the DC50 is 10 to 100 nM.

In the case of `CC(C)Oc1cc2nc(C3CCN(C(=O)CN4CCC(c5cccc(NC6CCC(=O)NC6=O)c5)CC4)CC3)cn2cc1NC(=O)c1cccc(C(F)(F)F)n1` (centres unmarked) [Example 3, N-[2-[1-[2-[4-[3-[(2,6-dioxo-3-piperidyl)amino]phenyl]-1-piperidyl]acetyl]-4-piperidyl]-7-isopropoxy-imidazo[1,2-a]pyridin-6-yl]-6-(trifluoromethyl)pyridine-2-carboxamide], the 50% degradation concentration (DC50) was in the range of 100 to 500 nM.

`CC(C)Oc1cc2nc(C3CCN(C(=O)CN4CCC(c5ccc(C6CCC(=O)NC6=O)cc5)CC4)CC3)cn2cc1NC(=O)c1cccc(C(F)(F)F)n1` (centres unmarked) [Example 4, N-[2-[1-[2-[4-[4-(2,6-dioxo-3-piperidyl)phenyl]-1-piperidyl]acetyl]-4-piperidyl]-7-isopropoxy-imidazo[1,2-a]pyridin-6-yl]-6-(trifluoromethyl)pyridine-2-carboxamide]: the DC50 was 100 to 500 nM.

In the case of `CC(C)Oc1cc2nc(C3CCN(C(=O)CN4CCN(c5ccc(C6CCC(=O)NC6=O)cc5)CC4)CC3)cn2cc1NC(=O)c1cccc(C(F)(F)F)n1` (centres unmarked) [Example 5, N-[2-[1-[2-[4-[4-(2,6-dioxo-3-piperidyl)phenyl]piperazin-1-yl]acetyl]-4-piperidyl]-7-isopropoxy-imidazo[1,2-a]pyridin-6-yl]-6-(trifluoromethyl)pyridine-2-carboxamide], the 50% degradation concentration (DC50) is 100 to 500 nM.

In turn, `CC(C)Oc1cc2nc(C3CCN(C(=O)CN4CCN(c5ccc(OC6CCC(=O)NC6=O)cc5)CC4)CC3)cn2cc1NC(=O)c1cccc(C(F)(F)F)n1` (centres unmarked) [Example 6, N-[2-[1-[2-[4-[4-[(2,6-dioxo-3-piperidyl)oxy]phenyl]piperazin-1-yl]acetyl]-4-piperidyl]-7-isopropoxy-imidazo[1,2-a]pyridin-6-yl]-6-(trifluoromethyl)pyridine-2-carboxamide] showed a DC50 of 100 to 500 nM.

Take `CC(C)Oc1cc2nc(C3CCN(C(=O)CN4CCC(c5ccc(NC6CCC(=O)NC6=O)cc5F)CC4)CC3)cn2cc1NC(=O)c1cccc(C(F)(F)F)n1` (centres unmarked) [Example 7, N-[2-[1-[2-[4-[4-[(2,6-dioxo-3-piperidyl)amino]-2-fluoro-phenyl]-1-piperidyl]acetyl]-4-piperidyl]-7-isopropoxy-imidazo[1,2-a]pyridin-6-yl]-6-(trifluoromethyl)pyridine-2-carboxamide]: the half-maximal degradation concentration (DC50) lay within 100 to 500 nM.

`CC(C)Oc1cc2nc(C3CCN(C(=O)CCN4CCC(c5ccc(NC6CCC(=O)NC6=O)cc5F)CC4)CC3)cn2cc1NC(=O)c1cccc(C(F)(F)F)n1` (centres unmarked) [Example 8, N-[2-[1-[3-[4-[4-[(2,6-dioxo-3-piperidyl)amino]-2-fluoro-phenyl]-1-piperidyl]propanoyl]-4-piperidyl]-7-isopropoxy-imidazo[1,2-a]pyridin-6-yl]-6-(trifluoromethyl)pyridine-2-carboxamide] yielded a DC50 of 10 to 100 nM.

Consider `CC(C)Oc1cc2nc(C3CCN(C(=O)CN4CCC(c5ccc(NC6CCC(=O)NC6=O)cc5)CC4)CC3)cn2cc1NC(=O)c1cccc(C(F)(F)F)n1` (centres unmarked) [Example 9, N-[2-[1-[2-[4-[4-[(2,6-dioxo-3-piperidyl)amino]phenyl]-1-piperidyl]acetyl]-4-piperidyl]-7-isopropoxy-imidazo[1,2-a]pyridin-6-yl]-6-(trifluoromethyl)pyridine-2-carboxamide], for which the DC50 is 10 to 100 nM.

As to `CC(C)Oc1cc2nc(C3CCN(C(=O)CN4CCN(c5ccc(NC6CCC(=O)NC6=O)cc5)CC4)CC3)cn2cc1NC(=O)c1cccc(C(F)(F)F)n1` (centres unmarked) [Example 10, N-[2-[1-[2-[4-[4-[(2,6-dioxo-3-piperidyl)amino]phenyl]piperazin-1-yl]acetyl]-4-piperidyl]-7-isopropoxy-imidazo[1,2-a]pyridin-6-yl]-6-(trifluoromethyl)pyridine-2-carboxamide], the 50% degradation concentration (DC50) lay within 100 to 500 nM.

In the case of `CC(C)Oc1cc2nc(C3CCN(CC(=O)N4CCC(c5ccc(NC6CCC(=O)NC6=O)cn5)CC4)CC3)cn2cc1NC(=O)c1cccc(C(F)(F)F)n1` (centres unmarked) [Example 11, N-[2-[1-[2-[4-[5-[(2,6-dioxo-3-piperidyl)amino]-2-pyridyl]-1-piperidyl]-2-oxo-ethyl]-4-piperidyl]-7-isopropoxy-imidazo[1,2-a]pyridin-6-yl]-6-(trifluoromethyl)pyridine-2-carboxamide], the DC50 was in the range of 100 to 500 nM.

`CC(C)Oc1cc2nc(C3CCN(CC(=O)N4CCC(c5ccc(C6(F)CCC(=O)NC6=O)cc5)CC4)CC3)cn2cc1NC(=O)c1cccc(C(F)(F)F)n1` (centres unmarked) [Example 12, N-[2-[1-[2-[4-[4-(3-fluoro-2,6-dioxo-3-piperidyl)phenyl]-1-piperidyl]-2-oxo-ethyl]-4-piperidyl]-7-isopropoxy-imidazo[1,2-a]pyridin-6-yl]-6-(trifluoromethyl)pyridine-2-carboxamide]: the 50% degradation concentration (DC50) is 100 to 500 nM.

In turn, `CC(C)Oc1cc2nc(C3CCN(CC(=O)N4CCC(c5cccc(NC6CCC(=O)NC6=O)c5F)CC4)CC3)cn2cc1NC(=O)c1cccc(C(F)(F)F)n1` (centres unmarked) [Example 13, N-[2-[1-[2-[4-[3-[(2,6-dioxo-3-piperidyl)amino]-2-fluoro-phenyl]-1-piperidyl]-2-oxo-ethyl]-4-piperidyl]-7-isopropoxy-imidazo[1,2-a]pyridin-6-yl]-6-(trifluoromethyl)pyridine-2-carboxamide] yielded a DC50 of 100 to 500 nM.

`CC(C)Oc1cc2nc(C3CCN(CC(=O)N4CCN(CCCc5ccc(NC6CCC(=O)NC6=O)cc5)CC4)CC3)cn2cc1NC(=O)c1cccc(C(F)(F)F)n1` (centres unmarked) [Example 16, N-[2-[1-[2-[4-[3-[4-[(2,6-dioxo-3-piperidyl)amino]phenyl]propyl]piperazin-1-yl]-2-oxo-ethyl]-4-piperidyl]-7-isopropoxy-imidazo[1,2-a]pyridin-6-yl]-6-(trifluoromethyl) pyridine-2-carboxamide] showed a DC50 of 100 to 500 nM.

Regarding `CC(C)Oc1cc2nc(C3CCN(CC(=O)N4CCC(c5cccc(NC6CCC(=O)NC6=O)c5)CC4)CC3)cn2cc1NC(=O)c1cccc(C(F)(F)F)n1` (centres unmarked) [Example 17, N-[2-[1-[2-[4-[3-[(2,6-dioxo-3-piperidyl)amino]phenyl]-1-piperidyl]-2-oxo-ethyl]-4-piperidyl]-7-isopropoxy-imidazo[1,2-a]pyridin-6-yl]-6-(trifluoromethyl)pyridine-2-carboxamide], the DC50 is 10 to 100 nM.
